We go through 34 molecules from patent US20140113934A1, “HETEROCYCLIC COMPOUNDS FOR TREATING HELMINTH INFECTIONS” (E I DU PONT DE NEMOURS AND COMPANY, priority 2011, published 2014).

In the first test the test system is Haemonchus contortus. Nature of the test: Test A: control of barber pole worm, eggs in culture media, mortality after 120 hours (L3 stage).
Details: not given
The format is cell-based. The protocol:
For evaluating control of the barber pole worm (Haemonchus contortus), a test compound was solubilized in culture media (Earle's Balanced Salt Solution) containing Haemonchus contortus eggs to obtain a final test compound concentration of 2.0 ppm. The test unit was evaluated for mortality 120 hours later after which the eggs had hatched and had advanced to the L3 stage.
Molecule `N#Cc1c(Cl)cccc1Oc1ccc(S(=O)(=O)NCc2ccnc3ccccc23)cc1` [Compound 2, 4-(3-chloro-2-cyanophenoxy)-N-(4-quinolinylmethyl)benzenesulfonamide] yielded a mortality at 2 ppm of 100%. Same read-out and setting: for `O=S(=O)(NCc1ccnc2ccccc12)c1ccc(Cc2ccccc2)cc1` [Compound 5, 4-(phenylmethyl)-N-(4-quinolinylmethyl)benzenesulfonamide] the value was 100%; for `COC(=O)c1ccccc1Oc1ccc(S(=O)(=O)NCc2ccnc3ccccc23)cc1` [Compound 16, methyl 2-[4-[[(4-quinolinylmethyl)amino]sulfonyl]phenoxy]benzoate], 100%; for `O=S(=O)(NCc1ccnc2ccccc12)c1ccc(S(=O)(=O)c2ccccc2)s1` [Compound 36], 100%. As to `O=S(=O)(NCc1ccnc2ccccc12)c1ccc(COc2ccccc2)cc1Cl` [Compound 37], the mortality at 2 ppm was 100%.

The molecule `O=S(=O)(NCc1ccnc2ccccc12)c1cccc(OCc2ccccc2)c1` [Compound 40] returned a mortality at 2 ppm of 100%. The same measure, in the same setting: for `N#Cc1ccccc1Oc1ccc(S(=O)(=O)NCc2ccnc3ccccc23)cn1` [Compound 41] the value was 100%. On the same count and under the same terms, for `O=S(=O)(NCc1ccnc2ccccc12)c1cccc(COc2ccc(Cl)cc2Cl)c1` [Compound 44] the value was 100%; for `O=S(=O)(NCc1ccnc2ccccc12)c1cccc(COc2ccccc2)c1` [Compound 46], 100%; for `O=S(=O)(NCc1ccnc2ccccc12)c1cccc(Cc2ccccc2)c1` [Compound 64], 100%. On the same count and under the same terms, for `O=S(=O)(NCc1ccnc2ccccc12)c1ccc(C#Cc2ccc(Cl)cc2Cl)s1` [Compound 73] the value was 100%. `O=S(=O)(NCc1ccnc2ccccc12)c1ccc(C#Cc2ccccc2)s1` [Compound 74] yielded a mortality at 2 ppm of 100%. On the same count and under the same terms, for `O=S(=O)(NCc1ccnc2ccccc12)c1ccc(C#Cc2ccccc2Cl)s1` [Compound 75] the value was 100%; for `O=S(=O)(NCc1ccnc2ccccc12)c1ccc(Cc2ccccc2)s1` [Compound 80], 100%. Molecule `O=S(=O)(NCc1ccnc2ccccc12)c1cccc(Cc2ccc(F)cc2)c1` [Compound 92] registered a mortality at 2 ppm of 100%. The same measure, in the same setting: for `O=S(=O)(NCc1ccnc2ccccc12)c1ccc(Cc2ccc(F)cc2F)s1` [Compound 99] the value was 100%.

The next test has as its system Haemonchus contortus. Description: Test B: Haemonchus contortus burdens in orally infected mice after gavage of test compound. The format is in vivo. The settings on record: mice infected orally with 600 L3 Haemonchus contortus larvae; gavage 10.0 mg/kg on day 0; burdens on day 5 relative to vehicle-dosed controls. On the procedure:
For evaluating control of the barber pole worm (Haemonchus contortus), mice were each infected orally with 600 L3 Hlaemonchus contortus larvae on Day −3. On day 0, the infected mice were gavaged with a test compound (n=1) in a propylene glycol/glycerol formal solution at the rate of 10.0 mg/kg body weight. On day 5, the mice were euthanized and evaluated for Haemonchus contortus burdens relative to the vehicle-dosed controls. The range of means for the number of Haemonchus contortus in the various tests in which these compounds were studied was 55-184.
Consider “4-(2-chloro-4-cyanophenoxy)-N-(quinolinylmethyl)benzenesulfonamide [Compound 15]”, for which the “% Efficacy” value is 79%. Same read-out and setting: for `O=S(=O)(NCc1ccnc2ccccc12)c1ccc(C(F)c2ccccc2)cc1` (racemic) [Compound 76] the value was 87%; for `N#Cc1c(Cl)cccc1Oc1ccc(S(=O)(=O)NCc2ccnc3ccccc23)cc1` [Compound 2, 4-(3-chloro-2-cyanophenoxy)-N-(4-quinolinylmethyl)benzenesulfonamide], 76%; for `O=S(=O)(NCc1ccnc2ccccc12)c1ccc(Cc2ccccc2)cc1` [Compound 5, 4-(phenylmethyl)-N-(4-quinolinylmethyl)benzenesulfonamide], 69%. Still for that read-out and setting: the value for `O=S(=O)(NCc1ccnc2ccccc12)c1ccc(OCc2ccc(Cl)cc2Cl)cc1` [Compound 7] was 61%; that for `N#Cc1ccc(Oc2ccc(S(=O)(=O)NCc3ccnc4ccccc34)cc2)cc1` [Compound 9] was 72%. In the case of `N#Cc1cccc(Oc2ccc(S(=O)(=O)NCc3ccnc4ccccc34)cc2)c1` [Compound 23], the “% Efficacy” value is given as 54%.

Turning to `COC(=O)c1ccc(Oc2ccc(S(=O)(=O)NCc3ccnc4ccccc34)cc2)c(Cl)c1` [Compound 27], the “% Efficacy” value worked out at 78%. On the same count and under the same terms, for `O=S(=O)(NCc1ccnc2ccccc12)c1ccc(C#Cc2ccccc2)cc1` [Compound 28] the value was 62%. `N#Cc1cc(Br)ccc1Oc1ccc(S(=O)(=O)NCc2ccnc3ccccc23)cc1` [Compound 31]: the “% Efficacy” value was 66%. Same read-out and setting: for `O=S(=O)(NCc1ccnc2ccccc12)c1ccc(COc2ccc(Cl)cc2)cc1` [Compound 34] the value was 71%. Turning to `O=S(=O)(NCc1ccnc2ccccc12)c1ccc(CCc2ccccc2)cc1` [Compound 38], the “% Efficacy” value is 75%. The same measure, in the same setting: for `CNC(=O)c1ccc(Oc2ccc(S(=O)(=O)NCc3ccnc4ccccc34)cc2)cc1` [Compound 51] the value was 74%. Still for that read-out and setting: for `O=C(Nc1ccc(S(=O)(=O)NCc2ccnc3ccccc23)cc1)c1ccccc1` [Compound 53] the value was 61%. On the same count and under the same terms, the value for `O=C(Nc1ccc(S(=O)(=O)NCc2ccnc3ccccc23)cc1)c1ccccc1Cl` [Compound 56] was 78%. Consider `O=S(=O)(NCc1ccnc2ccccc12)c1ccc(Cc2ccc(F)cc2)cc1` [Compound 59], for which the “% Efficacy” value stood at 86%.

In the case of `O=S(=O)(NCc1ccnc2ccccc12)c1ccc(Cc2ccc(F)cc2F)cc1` [Compound 60], the “% Efficacy” value was determined as 76%.

Turning to `O=S(=O)(NCc1ccnc2ccccc12)c1cccc(Cc2ccccc2)c1` [Compound 64], the “% Efficacy” value is on record as 70%.

Take `COc1ccccc1C(=O)Nc1ccc(S(=O)(=O)NCc2ccnc3ccccc23)cc1` [Compound 69]: the “% Efficacy” value is reported as 90%. Still for that read-out and setting: the value for `O=S(=O)(NCc1ccnc2ccccc12)c1ccc(Nc2ccccc2)cc1` [Compound 70] was 89%; that for `O=S(=O)(NCc1ccnc2ccccc12)c1ccc(C#Cc2ccccc2)s1` [Compound 74] was 60%; that for `O=S(=O)(NCc1ccnc2ccccc12)c1ccc(Cc2ccccc2)s1` [Compound 80] was 80%. On the same count and under the same terms, for `O=S(=O)(NCc1ccnc2ccccc12)c1ccc(Cc2ccccc2F)cc1` [Compound 91] the value was 93%; for `O=S(=O)(NCc1ccnc2ccccc12)c1cccc(Cc2ccc(F)cc2)c1` [Compound 92], 73%.
